According to patent US20080200474A1, “NOVEL FLUNARIZINE SALT FORMS AND METHODS OF MAKING AND USING THE SAME” (TRANSFORM PHARMACEUTICALS, INC., priority 2007, published 2008):
Where a name gives a salt, the structure may show the parent alone. Read-outs that look alike come from different tables or passages of the source.

Legend:
[1] = Excipient compatibility, solid mixes sucrose:crospovidone:flunarizine salt 94:5:1 stored at 60 degrees C.; format: physicochemical; settings: sucrose:crospovidone:salt 94:5:1 (weight %), wetted and dried, seal crimped, stored at 60 degrees C. for 2 weeks
Procedure: Two solid mixes, one containing sucrose:crospovidone:flunarizine dihydrochloride 94:5:1 (weight %), and the other containing sucrose:crospovidone:flunarizine benzoate 94:5:1 (weight %), were prepared in mortars, transferred to separate vials and a small amount of water was added until a very viscous syrup was formed. The samples were left to air dry at room temperature for two days followed by one day under vacuum at 40 degrees C. After the processing was finished, pictures of the samples were taken. Vials with identical content to the ones pictured were seal crimped and stored at 60 degrees C. for 2 weeks. After this period, their pictures were taken.

[2] = format: physicochemical
Description: Dynamic vapor sorption (DVS) analysis was completed on flunarizine benzoate from about 0 to about 95 percent relative humidity at about 25 degrees C. (See FIG. 5). […] This is characteristic of a nonhygroscopic material.
Dynamic vapor sorption (DVS) analysis was completed on flunarizine fumarate from about 0 to about 95 percent relative humidity at about 25 degrees C. (See FIG. 9). […] This is characteristic of a nonhygroscopic material.
Flunarizine dihydrochloride is hygroscopic. The dihydrochloride salt rapidly adsorbs water (greater than 7 percent change in mass) at relative humidity levels above about 60 percent. The release of the adsorbed water is difficult upon desorption. In comparison, the flunarizine benzoate salt of the present invention adsorbs relatively little water (less than 1 percent change in mass) at relative humidity levels up to about 95 percent.

Row | hygroscopicity (DVS) ([2]; about 25 degrees C.) | water adsorption, change in mass ([2]; relative humidity levels up to about 95 percent) | release of the adsorbed water upon desorption ([2]; DVS desorption, about 25 degrees C.) | water adsorption, change in mass ([2]; relative humidity levels above about 60 percent, about 25 degrees C.) | Molecule | degradation in excipient mix (comparison of images) [1] | stability over relative humidity (DVS) [2]
1 | nonhygroscopic | less than 1% | – | – | Fc1ccc(C(c2ccc(F)cc2)N2CCN(CC=Cc3ccccc3)CC2)cc1.O=C(O)c1ccccc1 [flunarizine benzoate, 1-cinnamyl-4-(di-p-fluorobenzhydryl)piperazine benzoate] | substantially more degradation had occurred in the mixes containing flunarizine dihydrochloride than those containing flunarizine benzoate | stable from about 0% to about 95% relative humidity
2 | nonhygroscopic | – | – | – | 1-cinnamyl-4-(di-p-fluorobenzhydryl)piperazine fumarate [flunarizine fumarate] | – | stable from about 0% to about 95% relative humidity
3 | hygroscopic | – | difficult | greater than 7% | Fc1ccc(C(c2ccc(F)cc2)N2CCN(C/C=C/c3ccccc3)CC2)cc1 [flunarizine dihydrochloride, reference compound] | substantially more degradation | –
